# Columns and labels:
# Test in all cases: Reduction of azo substrates over 24 hours at 35° C., microtitration plate (Example 1)
# Format in all cases: cell-based
# Acinetobacter baumanii = system: Acinetobacter baumanii; parameters: key to RED (substrate reduced or not): RED indicates whether the substrate is reduced (Y) or not (N); RED indicates whether the substrate is reduced (Y) or not (N); key to Decol (substrate decolourized, decrease in absorbance) / Fluo (fluorescence multiplied by 2 relative to substrate-free control) / Co (growth, absorbance at 660 nm): The symbol “+” means good growth/decolourization/significant increase in fluorescence; The symbol “+/−” means difficult growth; The symbol “−” means that there is no growth/decolourization/significant increase in fluorescence; details: A. baumannii, substrate 35 mg/l
# How it was run: (§1)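 Each species is represented by a single strain inoculated at 0.5 McFarland into Trypcase soya broth with substrate at 35 mg/l. Plates are read continuously at 35° C. over 24 hours. A substrate counts as reduced when absorbance falls or fluorescence doubles relative to a substrate-free control.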
# Enterococcus faecalis = system: Enterococcus faecalis; parameters: key to RED (substrate reduced or not): RED indicates whether the substrate is reduced (Y) or not (N); RED indicates whether the substrate is reduced (Y) or not (N); key to Decol (substrate decolourized, decrease in absorbance) / Fluo (fluorescence multiplied by 2 relative to substrate-free control) / Co (growth, absorbance at 660 nm): The symbol “+” means good growth/decolourization/significant increase in fluorescence; The symbol “+/−” means difficult growth; The symbol “−” means that there is no growth/decolourization/significant increase in fluorescence; details: E. faecalis, substrate 35 mg/l
# How it was run: as §1
# Cronobacter muytjensii = system: Cronobacter muytjensii; parameters: key to RED (substrate reduced or not): RED indicates whether the substrate is reduced (Y) or not (N); RED indicates whether the substrate is reduced (Y) or not (N); key to Co (growth, absorbance at 660 nm) / Decol (substrate decolourized, decrease in absorbance) / Fluo (fluorescence multiplied by 2 relative to substrate-free control): The symbol “+” means good growth/decolourization/significant increase in fluorescence; The symbol “+/−” means difficult growth; The symbol “−” means that there is no growth/decolourization/significant increase in fluorescence; details: E. muytjensii, substrate 35 mg/l
# How it was run: as §1
# Pseudomonas aeruginosa = system: Pseudomonas aeruginosa; parameters: key to RED (substrate reduced or not): RED indicates whether the substrate is reduced (Y) or not (N); RED indicates whether the substrate is reduced (Y) or not (N); key to Co (growth, absorbance at 660 nm) / Decol (substrate decolourized, decrease in absorbance) / Fluo (fluorescence multiplied by 2 relative to substrate-free control): The symbol “+” means good growth/decolourization/significant increase in fluorescence; The symbol “+/−” means difficult growth; The symbol “−” means that there is no growth/decolourization/significant increase in fluorescence; details: P. aeruginosa, substrate 35 mg/l
# How it was run: as §1
# [1] = system: Staphylococcus epidermidis; parameters: key to RED (substrate reduced or not): RED indicates whether the substrate is reduced (Y) or not (N); RED indicates whether the substrate is reduced (Y) or not (N); key to Co (growth, absorbance at 660 nm) / Decol (substrate decolourized, decrease in absorbance) / Fluo (fluorescence multiplied by 2 relative to substrate-free control): The symbol “+” means good growth/decolourization/significant increase in fluorescence; The symbol “+/−” means difficult growth; The symbol “−” means that there is no growth/decolourization/significant increase in fluorescence; details: S. epidermidis, substrate 35 mg/l
# How it was run: as §1
# Kocuria rosea = system: Kocuria rosea; parameters: key to RED (substrate reduced or not): RED indicates whether the substrate is reduced (Y) or not (N); RED indicates whether the substrate is reduced (Y) or not (N); key to Co (growth, absorbance at 660 nm) / Decol (substrate decolourized, decrease in absorbance) / Fluo (fluorescence multiplied by 2 relative to substrate-free control): The symbol “+” means good growth/decolourization/significant increase in fluorescence; The symbol “+/−” means difficult growth; The symbol “−” means that there is no growth/decolourization/significant increase in fluorescence; details: K. rosea, substrate 35 mg/l
# How it was run: as §1
# Candida albicans = system: Candida albicans; parameters: key to RED (substrate reduced or not): RED indicates whether the substrate is reduced (Y) or not (N); RED indicates whether the substrate is reduced (Y) or not (N); key to Co (growth, absorbance at 660 nm) / Decol (substrate decolourized, decrease in absorbance) / Fluo (fluorescence multiplied by 2 relative to substrate-free control): The symbol “+” means good growth/decolourization/significant increase in fluorescence; The symbol “+/−” means difficult growth; The symbol “−” means that there is no growth/decolourization/significant increase in fluorescence; details: substrate 35 mg/l
# How it was run: as §1
# Staphylococcus aureus = system: Staphylococcus aureus; parameters: key to RED (substrate reduced or not): RED indicates whether the substrate is reduced (Y) or not (N); RED indicates whether the substrate is reduced (Y) or not (N); key to Co (growth, absorbance at 660 nm) / Decol (substrate decolourized, decrease in absorbance) / Fluo (fluorescence multiplied by 2 relative to substrate-free control): The symbol “+” means good growth/decolourization/significant increase in fluorescence; The symbol “+/−” means difficult growth; The symbol “−” means that there is no growth/decolourization/significant increase in fluorescence; details: S. aureus, substrate 35 mg/l
# How it was run: as §1
# Geotrichum candidum = system: Geotrichum candidum; parameters: key to RED (substrate reduced or not): RED indicates whether the substrate is reduced (Y) or not (N); RED indicates whether the substrate is reduced (Y) or not (N); key to Co (growth, absorbance at 660 nm) / Decol (substrate decolourized, decrease in absorbance) / Fluo (fluorescence multiplied by 2 relative to substrate-free control): The symbol “+” means good growth/decolourization/significant increase in fluorescence; The symbol “+/−” means difficult growth; The symbol “−” means that there is no growth/decolourization/significant increase in fluorescence; details: G. candidum, substrate 35 mg/l
# How it was run: as §1
# Escherichia coli = system: Escherichia coli; parameters: key to RED (substrate reduced or not): RED indicates whether the substrate is reduced (Y) or not (N); RED indicates whether the substrate is reduced (Y) or not (N); key to Co (growth, absorbance at 660 nm) / Decol (substrate decolourized, decrease in absorbance) / Fluo (fluorescence multiplied by 2 relative to substrate-free control): The symbol “+” means good growth/decolourization/significant increase in fluorescence; The symbol “+/−” means difficult growth; The symbol “−” means that there is no growth/decolourization/significant increase in fluorescence; details: E. coli, substrate 35 mg/l
# How it was run: as §1
Structure (SMILES),"Co (growth, absorbance at 660 nm) (Acinetobacter baumanii)","Decol (substrate decolourized, decrease in absorbance) (Acinetobacter baumanii)",Fluo (fluorescence multiplied by 2 relative to substrate-free control) (Acinetobacter baumanii),RED (substrate reduced or not) (Acinetobacter baumanii),"Co (growth, absorbance at 660 nm) (Enterococcus faecalis)","Decol (substrate decolourized, decrease in absorbance) (Enterococcus faecalis)",Fluo (fluorescence multiplied by 2 relative to substrate-free control) (Enterococcus faecalis),RED (substrate reduced or not) (Enterococcus faecalis),"Co (growth, absorbance at 660 nm) (Cronobacter muytjensii)","Decol (substrate decolourized, decrease in absorbance) (Cronobacter muytjensii)",Fluo (fluorescence multiplied by 2 relative to substrate-free control) (Cronobacter muytjensii),RED (substrate reduced or not) (Cronobacter muytjensii),"Co (growth, absorbance at 660 nm) (Pseudomonas aeruginosa)","Decol (substrate decolourized, decrease in absorbance) (Pseudomonas aeruginosa)",Fluo (fluorescence multiplied by 2 relative to substrate-free control) (Pseudomonas aeruginosa),RED (substrate reduced or not) (Pseudomonas aeruginosa),"Co (growth, absorbance at 660 nm) [1]","Decol (substrate decolourized, decrease in absorbance) [1]",Fluo (fluorescence multiplied by 2 relative to substrate-free control) [1],RED (substrate reduced or not) [1],other results
O=S(=O)([O-])c1ccc(/N=N/c2ccc(O)c3ccccc23)cc1.[Na+] [Orange I],+,+/−,−,Y,+,+,−,Y,+,+,−,Y,+,−,−,N,+,+,−,Y,"Co (growth, absorbance at 660 nm) (Kocuria rosea): −; Decol (substrate decolourized, decrease in absorbance) (Kocuria rosea): −; Fluo (fluorescence multiplied by 2 relative to substrate-free control) (Kocuria rosea): −; Co (growth, absorbance at 660 nm) (Candida albicans): +; Decol (substrate decolourized, decrease in absorbance) (Candida albicans): −; Fluo (fluorescence multiplied by 2 relative to substrate-free control) (Candida albicans): −; RED (substrate reduced or not) (Candida albicans): N; Co (growth, absorbance at 660 nm) (Staphylococcus aureus): +; Decol (substrate decolourized, decrease in absorbance) (Staphylococcus aureus): +; Fluo (fluorescence multiplied by 2 relative to substrate-free control) (Staphylococcus aureus): −; RED (substrate reduced or not) (Staphylococcus aureus): Y; Co (growth, absorbance at 660 nm) (Geotrichum candidum): +/−; Decol (substrate decolourized, decrease in absorbance) (Geotrichum candidum): −; Fluo (fluorescence multiplied by 2 relative to substrate-free control) (Geotrichum candidum): −; RED (substrate reduced or not) (Geotrichum candidum): N; Co (growth, absorbance at 660 nm) (Escherichia coli): +; Decol (substrate decolourized, decrease in absorbance) (Escherichia coli): +; Fluo (fluorescence multiplied by 2 relative to substrate-free control) (Escherichia coli): −; RED (substrate reduced or not) (Escherichia coli): Y"
O=S(=O)([O-])c1ccc2c(N=Nc3ccccc3)c(O)c(S(=O)(=O)[O-])cc2c1.[Na+].[Na+] [Ponceau 2G],+,−,−,N,+,+,−,Y,+,−,−,N,+,−,−,N,+,−,−,N,"Co (growth, absorbance at 660 nm) (Kocuria rosea): −; Decol (substrate decolourized, decrease in absorbance) (Kocuria rosea): −; Fluo (fluorescence multiplied by 2 relative to substrate-free control) (Kocuria rosea): −; Co (growth, absorbance at 660 nm) (Candida albicans): +; Decol (substrate decolourized, decrease in absorbance) (Candida albicans): −; Fluo (fluorescence multiplied by 2 relative to substrate-free control) (Candida albicans): −; RED (substrate reduced or not) (Candida albicans): N; Co (growth, absorbance at 660 nm) (Staphylococcus aureus): +; Decol (substrate decolourized, decrease in absorbance) (Staphylococcus aureus): −; Fluo (fluorescence multiplied by 2 relative to substrate-free control) (Staphylococcus aureus): −; RED (substrate reduced or not) (Staphylococcus aureus): N; Co (growth, absorbance at 660 nm) (Geotrichum candidum): +/−; Decol (substrate decolourized, decrease in absorbance) (Geotrichum candidum): −; Fluo (fluorescence multiplied by 2 relative to substrate-free control) (Geotrichum candidum): −; RED (substrate reduced or not) (Geotrichum candidum): N; Co (growth, absorbance at 660 nm) (Escherichia coli): +; Decol (substrate decolourized, decrease in absorbance) (Escherichia coli): −; Fluo (fluorescence multiplied by 2 relative to substrate-free control) (Escherichia coli): −; RED (substrate reduced or not) (Escherichia coli): N"
O=S(=O)([O-])c1ccc(N=Nc2c(O)ccc3cc(S(=O)(=O)[O-])ccc23)cc1.[Na+].[Na+] [Sunset Yellow],+,−,−,N,+,+,+,Y,+,−,−,N,+,−,−,N,+,−,−,N,"Co (growth, absorbance at 660 nm) (Kocuria rosea): −; Decol (substrate decolourized, decrease in absorbance) (Kocuria rosea): −; Fluo (fluorescence multiplied by 2 relative to substrate-free control) (Kocuria rosea): −; Co (growth, absorbance at 660 nm) (Candida albicans): +; Decol (substrate decolourized, decrease in absorbance) (Candida albicans): +; Fluo (fluorescence multiplied by 2 relative to substrate-free control) (Candida albicans): +; RED (substrate reduced or not) (Candida albicans): Y; Co (growth, absorbance at 660 nm) (Staphylococcus aureus): +; Decol (substrate decolourized, decrease in absorbance) (Staphylococcus aureus): −; Fluo (fluorescence multiplied by 2 relative to substrate-free control) (Staphylococcus aureus): −; RED (substrate reduced or not) (Staphylococcus aureus): N; Co (growth, absorbance at 660 nm) (Geotrichum candidum): +; Decol (substrate decolourized, decrease in absorbance) (Geotrichum candidum): −; Fluo (fluorescence multiplied by 2 relative to substrate-free control) (Geotrichum candidum): −; RED (substrate reduced or not) (Geotrichum candidum): N; Co (growth, absorbance at 660 nm) (Escherichia coli): +; Decol (substrate decolourized, decrease in absorbance) (Escherichia coli): −; Fluo (fluorescence multiplied by 2 relative to substrate-free control) (Escherichia coli): −; RED (substrate reduced or not) (Escherichia coli): N"
